Experimental data from ChEMBL document CHEMBL1909046, “DrugMatrix in vitro pharmacology data”.

Columns and labels:
[1] = target: Mitogen-activated protein kinase 1 (Homo sapiens, UniProt P28482); experiment: DRUGMATRIX: Protein Serine/Threonine Kinase, ERK2 enzyme inhibition (substrate: Myelin Basic Protein); design: species or system Escherichia coli; conditions: Not Active = under 50% inhibition at 10 µM
[2] = target: Aldo-keto reductase family 1 member B1 (Rattus norvegicus, UniProt P07943); assay type: tissue-based, Lens of camera-type eye;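 further: inhibition of aldose reductase enzyme activity, measured with DL-glyceraldehyde as the substrate; in other assays of this panel Not Active means under 50% inhibition at 10 µM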
[3] = DRUGMATRIX: Tumor Necrosis Factor (TNF), Non-Selective radioligand binding (ligand: [125I] TNF-alpha); assay type: cell membranes, Membrane; conditions: u-937; Not Active = under 50% inhibition at 10 µM
[4] = target: Beta-2 adrenergic receptor (Homo sapiens, UniProt P07550); experiment: DRUGMATRIX: Adrenergic beta2 radioligand binding (ligand: [3H] CGP-12177); assay type: cell membranes, Membrane; conditions: cho; Not Active = under 50% inhibition at 10 µM
[5] = target: 5-hydroxytryptamine receptor 1B (Rattus norvegicus, UniProt P28564); assay type: cell membranes, Wistar, Cerebral cortex, Membrane; further: in other assays of this panel Not Active means under 50% inhibition at 10 µM
Cathepsin G = target: T1, Cathepsin G (Homo sapiens, UniProt P08311); assay type: tissue-based; conditions: neutrophil;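 further: inhibition of Cathepsin G enzyme activity, tested on an AMC-conjugated peptide substrate; in other assays of this panel Not Active means under 50% inhibition at 10 µM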
T1 sequence (P08311 whole entry): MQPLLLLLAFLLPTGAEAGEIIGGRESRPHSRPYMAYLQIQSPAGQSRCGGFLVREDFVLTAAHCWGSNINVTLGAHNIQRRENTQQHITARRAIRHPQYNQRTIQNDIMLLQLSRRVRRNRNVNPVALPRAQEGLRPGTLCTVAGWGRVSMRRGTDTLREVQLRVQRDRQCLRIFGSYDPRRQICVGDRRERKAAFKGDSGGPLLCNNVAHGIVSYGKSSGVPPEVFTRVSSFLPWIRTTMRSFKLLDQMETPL

[6] = target: T2, Vasoactive intestinal polypeptide receptor 1 (Homo sapiens, UniProt P32241); assay type: cell membranes, Membrane; conditions: ht-29; further: in other assays of this panel Not Active means under 50% inhibition at 10 µM
T2 sequence (P32241 whole entry): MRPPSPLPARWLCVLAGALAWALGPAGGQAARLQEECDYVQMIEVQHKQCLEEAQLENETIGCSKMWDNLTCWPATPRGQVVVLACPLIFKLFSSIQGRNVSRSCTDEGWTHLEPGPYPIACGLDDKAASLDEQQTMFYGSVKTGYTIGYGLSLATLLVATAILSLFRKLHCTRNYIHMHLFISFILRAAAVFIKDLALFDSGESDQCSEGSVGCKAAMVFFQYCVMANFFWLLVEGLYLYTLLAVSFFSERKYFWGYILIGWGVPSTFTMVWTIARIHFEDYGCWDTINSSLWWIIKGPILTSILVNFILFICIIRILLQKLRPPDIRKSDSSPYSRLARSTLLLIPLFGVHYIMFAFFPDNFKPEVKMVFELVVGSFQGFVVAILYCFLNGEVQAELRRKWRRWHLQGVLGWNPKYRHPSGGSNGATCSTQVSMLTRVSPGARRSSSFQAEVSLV

Cytochrome P450 2E1 = Cytochrome P450 2E1 (Homo sapiens, UniProt P05181); conditions: bti-tn-5b1-4; further: in other assays of this panel Not Active means under 50% inhibition at 10 µM
[7] = DRUGMATRIX: Platelet-Derived Growth Factor (PDGF) radioligand binding (ligand: [125I] PDGF); assay type: cell-based; conditions: nih3t3; Not Active = under 50% inhibition at 10 µM
[8] = target: T3, Alpha-1D adrenergic receptor (Homo sapiens, UniProt P25100); assay type: cell membranes, HEK293, Membrane; conditions: hek293; further: in other assays of this panel Not Active means under 50% inhibition at 10 µM
T3 sequence (P25100 whole entry): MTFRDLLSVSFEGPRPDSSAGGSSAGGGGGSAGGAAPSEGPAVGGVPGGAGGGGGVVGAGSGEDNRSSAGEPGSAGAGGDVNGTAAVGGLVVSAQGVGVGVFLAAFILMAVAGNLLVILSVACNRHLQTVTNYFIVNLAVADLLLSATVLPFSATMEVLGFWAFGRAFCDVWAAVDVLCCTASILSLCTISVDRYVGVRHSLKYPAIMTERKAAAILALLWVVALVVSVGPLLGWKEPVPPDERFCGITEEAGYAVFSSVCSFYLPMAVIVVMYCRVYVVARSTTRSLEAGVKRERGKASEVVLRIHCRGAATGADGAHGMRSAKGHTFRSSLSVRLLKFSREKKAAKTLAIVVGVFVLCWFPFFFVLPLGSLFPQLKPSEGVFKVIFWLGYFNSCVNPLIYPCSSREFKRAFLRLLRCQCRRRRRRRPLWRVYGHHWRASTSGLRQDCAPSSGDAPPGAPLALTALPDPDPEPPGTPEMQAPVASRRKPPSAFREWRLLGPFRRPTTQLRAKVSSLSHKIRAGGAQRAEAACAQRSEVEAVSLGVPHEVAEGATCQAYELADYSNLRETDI

[9] = DRUGMATRIX: Nicotinic Acetylcholine radioligand binding (ligand: [125I] Epibatidine); assay type: cell membranes, Membrane; conditions: imr-32; Not Active = under 50% inhibition at 10 µM
[10] = target: T4, Alpha-2C adrenergic receptor (Homo sapiens, UniProt P18825); experiment: DRUGMATRIX: Adrenergic Alpha-2C radioligand binding (ligand: [3H] MK-912); assay type: cell membranes, Sf9, Membrane; conditions: sf9
T4 sequence (P18825 whole entry): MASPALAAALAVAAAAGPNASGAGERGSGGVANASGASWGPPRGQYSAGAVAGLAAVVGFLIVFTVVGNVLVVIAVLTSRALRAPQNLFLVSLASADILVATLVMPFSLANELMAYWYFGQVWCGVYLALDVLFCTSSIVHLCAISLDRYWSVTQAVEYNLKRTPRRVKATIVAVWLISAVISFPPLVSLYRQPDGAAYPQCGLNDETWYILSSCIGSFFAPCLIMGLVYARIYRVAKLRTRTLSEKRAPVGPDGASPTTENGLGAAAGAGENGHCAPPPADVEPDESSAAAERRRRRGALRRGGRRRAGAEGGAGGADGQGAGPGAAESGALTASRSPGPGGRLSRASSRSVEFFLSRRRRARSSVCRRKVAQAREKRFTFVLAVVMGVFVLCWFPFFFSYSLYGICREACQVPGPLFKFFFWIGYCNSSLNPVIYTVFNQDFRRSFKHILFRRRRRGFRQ

Mu-type opioid receptor = Mu-type opioid receptor (Homo sapiens, UniProt P35372); experiment: DRUGMATRIX: Opiate mu (OP3, MOP) radioligand binding (ligand: [3H] Diprenorphine); assay type: cell membranes, CHO-K1, Membrane; conditions: cho-k1; Not Active = under 50% inhibition at 10 µM
Mu-type opioid receptor, sequence (P35372 whole entry): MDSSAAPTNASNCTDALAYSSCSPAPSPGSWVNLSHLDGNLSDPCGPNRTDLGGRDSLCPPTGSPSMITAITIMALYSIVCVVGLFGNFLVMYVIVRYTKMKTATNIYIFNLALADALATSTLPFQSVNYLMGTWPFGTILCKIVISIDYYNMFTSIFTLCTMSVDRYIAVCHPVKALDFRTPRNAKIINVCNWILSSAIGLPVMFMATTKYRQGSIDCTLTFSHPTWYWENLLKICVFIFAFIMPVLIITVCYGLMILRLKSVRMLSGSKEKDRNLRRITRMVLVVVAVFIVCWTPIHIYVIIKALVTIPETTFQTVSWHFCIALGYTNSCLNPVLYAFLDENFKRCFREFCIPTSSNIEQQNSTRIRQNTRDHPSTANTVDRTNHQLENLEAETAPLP

5-hydroxytryptamine receptor 1B, sequence (P28564 whole entry): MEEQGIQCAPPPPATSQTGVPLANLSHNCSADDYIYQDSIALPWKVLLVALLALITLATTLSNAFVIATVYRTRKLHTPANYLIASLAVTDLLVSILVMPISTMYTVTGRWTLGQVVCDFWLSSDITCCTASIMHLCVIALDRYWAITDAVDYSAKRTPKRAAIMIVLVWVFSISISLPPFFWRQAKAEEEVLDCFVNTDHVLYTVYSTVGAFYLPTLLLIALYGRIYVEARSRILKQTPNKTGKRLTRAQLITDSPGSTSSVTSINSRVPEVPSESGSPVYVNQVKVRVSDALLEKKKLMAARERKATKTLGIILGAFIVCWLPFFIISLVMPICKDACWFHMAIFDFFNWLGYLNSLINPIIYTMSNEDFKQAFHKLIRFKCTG
Beta-2 adrenergic receptor, sequence (P07550 whole entry): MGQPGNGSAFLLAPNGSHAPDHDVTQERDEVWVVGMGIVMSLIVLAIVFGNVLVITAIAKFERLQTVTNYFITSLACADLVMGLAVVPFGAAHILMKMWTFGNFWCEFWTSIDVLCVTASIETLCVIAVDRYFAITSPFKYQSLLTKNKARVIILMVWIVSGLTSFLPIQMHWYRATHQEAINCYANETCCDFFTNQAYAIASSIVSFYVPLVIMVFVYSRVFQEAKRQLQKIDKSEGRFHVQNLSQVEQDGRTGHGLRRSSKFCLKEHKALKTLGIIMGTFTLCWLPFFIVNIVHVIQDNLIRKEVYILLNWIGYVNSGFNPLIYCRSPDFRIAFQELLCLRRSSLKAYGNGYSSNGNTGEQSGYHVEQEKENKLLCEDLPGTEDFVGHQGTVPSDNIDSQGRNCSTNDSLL
Mitogen-activated protein kinase 1, sequence (P28482 whole entry): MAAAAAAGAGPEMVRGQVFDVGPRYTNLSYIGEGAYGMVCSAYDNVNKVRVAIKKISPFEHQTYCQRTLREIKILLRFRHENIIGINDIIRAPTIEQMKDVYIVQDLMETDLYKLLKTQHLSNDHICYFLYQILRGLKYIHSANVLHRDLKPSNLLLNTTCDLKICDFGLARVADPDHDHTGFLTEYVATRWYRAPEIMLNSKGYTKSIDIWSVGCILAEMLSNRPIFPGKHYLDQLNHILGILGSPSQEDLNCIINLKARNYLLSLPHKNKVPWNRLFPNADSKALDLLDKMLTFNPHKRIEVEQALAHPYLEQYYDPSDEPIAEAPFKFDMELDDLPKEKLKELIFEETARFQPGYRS
Cytochrome P450 2E1, sequence (P05181 whole entry): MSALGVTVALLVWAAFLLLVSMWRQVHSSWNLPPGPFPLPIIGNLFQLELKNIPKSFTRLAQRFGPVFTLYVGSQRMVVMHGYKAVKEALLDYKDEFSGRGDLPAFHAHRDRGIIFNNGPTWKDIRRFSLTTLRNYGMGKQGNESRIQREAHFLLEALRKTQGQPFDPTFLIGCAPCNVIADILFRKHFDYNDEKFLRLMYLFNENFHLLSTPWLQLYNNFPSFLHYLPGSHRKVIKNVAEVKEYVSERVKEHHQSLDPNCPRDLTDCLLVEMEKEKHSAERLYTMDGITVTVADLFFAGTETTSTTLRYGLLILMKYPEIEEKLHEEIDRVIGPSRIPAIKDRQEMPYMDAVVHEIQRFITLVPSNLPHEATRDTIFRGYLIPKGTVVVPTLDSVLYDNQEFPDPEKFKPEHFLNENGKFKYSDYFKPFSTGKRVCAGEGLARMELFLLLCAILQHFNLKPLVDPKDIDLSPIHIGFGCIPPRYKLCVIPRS

O=C1NC(=O)C(c2ccccc2)(c2ccccc2)N1 [PHENYTOIN]
Not Active: IC50 [1] | IC50 [2] | IC50 [3] | Ki [3] | IC50 [4] | IC50 [5] | IC50 (Cathepsin G) | IC50 [6] | IC50 (Cytochrome P450 2E1) | Ki (Cytochrome P450 2E1) | IC50 [7] | Ki [7] | IC50 [8] | IC50 [9] | Ki [9] | IC50 [10] | IC50 (Mu-type opioid receptor)

CNC(=O)Oc1ccc2c(c1)[C@]1(C)CCN(C)[C@@H]1N2C [PHYSOSTIGMINE]
Not Active: IC50 [1] | IC50 [2] | IC50 [3] | Ki [3] | IC50 [4] | IC50 [5] | IC50 (Cathepsin G) | IC50 [6] | IC50 (Cytochrome P450 2E1) | Ki (Cytochrome P450 2E1) | IC50 [7] | Ki [7] | IC50 [8] | IC50 [9] | Ki [9] | IC50 [10] | IC50 (Mu-type opioid receptor)

CN1C(C(=O)Nc2ccccn2)=C(O)c2ccccc2S1(=O)=O [PIROXICAM]
Not Active: IC50 [1] | IC50 [2] | IC50 [3] | Ki [3] | IC50 [4] | IC50 [5] | IC50 (Cathepsin G) | IC50 [6] | IC50 (Cytochrome P450 2E1) | Ki (Cytochrome P450 2E1) | IC50 [7] | Ki [7] | IC50 [8] | IC50 [9] | Ki [9] | IC50 [10] | IC50 (Mu-type opioid receptor)

CCC1(c2ccccc2)C(=O)NCNC1=O [PRIMIDONE]
Not Active: IC50 [1] | IC50 [2] | IC50 [3] | Ki [3] | IC50 [4] | IC50 [5] | IC50 (Cathepsin G) | IC50 [6] | IC50 (Cytochrome P450 2E1) | Ki (Cytochrome P450 2E1) | IC50 [7] | Ki [7] | IC50 [8] | IC50 [9] | Ki [9] | IC50 [10] | IC50 (Mu-type opioid receptor)
